This test concerns the target T1, Leishmania donovani trypanothione reductase (LdTryR) (Leishmania donovani, UniProt P39050).
T1 construct: gene TPR; recombinant LdTryR
Nature of the test: spectrophotometric NADPH oxidation assay ([…] nm) on recombinant enzyme, Lineweaver-Burk kinetics. It is filed as biochemical.

For orientation: Ki means a measure of affinity in units of concentration, obtained from inhibition or displacement.

T1 sequence (P39050 whole entry): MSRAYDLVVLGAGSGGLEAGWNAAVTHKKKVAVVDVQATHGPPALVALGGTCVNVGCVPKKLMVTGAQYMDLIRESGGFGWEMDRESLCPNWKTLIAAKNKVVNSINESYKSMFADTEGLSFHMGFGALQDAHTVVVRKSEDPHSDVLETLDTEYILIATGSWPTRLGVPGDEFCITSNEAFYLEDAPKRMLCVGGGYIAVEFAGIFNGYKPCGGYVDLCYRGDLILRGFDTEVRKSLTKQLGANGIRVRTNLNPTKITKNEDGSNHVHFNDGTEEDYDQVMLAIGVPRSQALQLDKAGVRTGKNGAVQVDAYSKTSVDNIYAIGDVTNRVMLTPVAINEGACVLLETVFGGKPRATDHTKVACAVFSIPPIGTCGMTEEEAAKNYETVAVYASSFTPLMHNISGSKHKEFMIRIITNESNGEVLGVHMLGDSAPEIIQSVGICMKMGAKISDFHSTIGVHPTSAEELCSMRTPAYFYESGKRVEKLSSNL

In the case of `CC[C@H](CC[C@@H](C)[C@H]1CC[C@H]2[C@@H]3CC=C4C[C@@H](O)CC[C@]4(C)[C@H]3CC[C@]12C)C(C)C` [β-sitosterolCCL, β-sitosterol], the Ki came out at 8.43 µM.

The values above are taken from article PMC7686382, “Bioassay-based Corchorus capsularis L. leaf-derived β-sitosterol exerts antileishmanial effects against Leishmania donovani by targeting trypanothione reductase” (Scientific Reports, 2020).
